Laboratory results published in patent US20210309666A1, “SMALL MOLECULE MDM2 PROTEIN DEGRADERS” (THE REGENTS OF THE UNIVERSITY OF MICHIGAN, priority 2018, published 2021).

tested on: RS4;11 cells; experiment: Cell growth inhibition, 4-day proliferation assay (WST-8); format: cell-based; conditions: Homo sapiens, 96 h; RS4;11 cells, 4 days, WST-8; read-out: RS4; 11 Cells IC50
Procedure: The effect of representative Compounds of the Disclosure on cell viability was determined in a 4-day proliferation assay. Cells were maintained in the appropriate culture medium with 10% FBS at 37° C. and an atmosphere of 5% CO2. Also, the effect of a MDM2 inhibitor (Cpd. A; see Compound Example No. 22 of U.S. Pat. No. 8,629,141) and a known MDM2 degrader (Cpd. D, see Cpd. No. 175 of WO 2017/0176957) on cell viability in various cell lines is also included in Table 5. Cpd. […] A and D. The structure of Cpd. A is:
Cells were seeded in 96-well flat bottom (Corning COSTAR, Corning, N.Y., cat #3595) at a density of 2,000-3,000 cells/well in 100 μL of culture medium. Compounds were serially diluted in the appropriate medium, and 100 μL of the diluted compounds were added to the appropriate wells of the cell plate. After the addition of compounds, the cells were incubated at 37° C. in an atmosphere of 5% CO2 for 4 days. Cell viability was determined using the WST (2-(2-methoxy-4-nitrophenyl)-3-(4-nitrophenyl)-5-(2,4-disulfophenyl)-2H-tetrazolium, monosodium salt) Cell Counting-8 Kit (Dojindo Molecular Technologies, Inc., Rockville, Md.) according to the manufacturers' instructions.
WST-8 reagent was added to each well at a final concentration of 10% (v/v), and then the plates were incubated at 37° C. for 1-2 hours for color development. The absorbance was measured at 450 nm using a SPECTRAmax PLUS plate reader (Molecular Devices, Sunnyvale, Calif.). The readings were normalized to the DMSO-treated cells and the half maximal inhibitory concentration (IC50) was calculated by nonlinear regression (four parameters sigmoid fitted with variable slope, least squares fit, and no constraint) analysis using the GraphPad Prism 5 software (GraphPad Software, La Jolla, Calif.).

| Structure (SMILES) | IC50 |
| --- | --- |
| COc1cc(C(=O)N2CCC(C#Cc3cccc4c3CN(C3CCC(=O)NC3=O)C4=O)CC2)ccc1NC(=O)[C@@H]1NC2(CCCCC2)[C@@]2(C(=O)Nc3cc(Cl)ccc32)[C@H]1c1cccc(Cl)c1F (stereo partly drawn) [Cpd. No. 28, (3′R,4′S,5′R)-6″-chloro-4′-(3-chloro-2-fluorophenyl)-N-(4-(4-((2-(2,6-dioxopiperidin-3-yl)-1-oxoisoindolin-4-yl)ethynyl)piperidine-1-carbonyl)-2-methoxyphenyl)-2″-oxodispiro[cyclohexane-1,2′-pyrrolidine-3′,3″-indoline]-5′-carboxamide] | > 100 nM |
| CN1[C@@H](C(=O)N(C)[C@H]2CC[C@H](C(=O)N3CCC(C#Cc4cccc5c4CN(C4CCC(=O)NC4=O)C5=O)CC3)CC2)[C@H](c2cccc(Cl)c2F)[C@]2(C(=O)Nc3cc(Cl)ccc32)C12CCCCC2 (stereo partly drawn) [Cpd. No. 16, (3′R,4′S,5′R)-6″-chloro-4′-(3-chloro-2-fluorophenyl)-N-((1r,4R)-4-(4-((2-(2,6-dioxopiperidin-3-yl)-1-oxoisoindolin-4-yl)ethynyl)piperidine-1-carbonyl)cyclohexyl)-N,1′-dimethyl-2″-oxodispiro[cyclohexane-1,2′-pyrrolidine-3′,3″-indoline]-5′-carboxamide] | > 100 nM |
| CCN1[C@@H](C(=O)N2CCC(C(=O)N3CCC(C#Cc4cccc5c4CN(C4CCC(=O)NC4=O)C5=O)CC3)CC2)[C@H](c2cccc(Cl)c2F)[C@]2(C(=O)Nc3cc(Cl)ccc32)C12CCCCC2 (stereo partly drawn) [Cpd. No. 22, 3-(4-((1-(1-((3′R,4′S,5′R)-6″-chloro-4′-(3-chloro-2-fluorophenyl)-1′-ethyl-2″-oxodispiro[cyclohexane-1,2′-pyrrolidine-3′,3″-indoline]-5′-carbonyl)piperidine-4-carbonyl)piperidin-4-yl)ethynyl)-1-oxoisoindolin-2-yl)piperidine-2,6-dione] | > 100 nM |
| CC(C)[C@@H](CS(=O)(=O)C(C)C)N1C(=O)[C@@](C)(CC(=O)NCCCC#Cc2cccc3c2CN(C2CCC(=O)NC2=O)C3=O)C[C@H](c2cccc(Cl)c2)[C@H]1c1ccc(Cl)cc1 (stereo partly drawn) [Cpd. No. 37, 2-((3R,5R,6S)-5-(3-chlorophenyl)-6-(4-chlorophenyl)-1-((S)-1-(isopropylsulfonyl)-3-methylbutan-2-yl)-3-methyl-2-oxopiperidin-3-yl)-N-(5-(2-(2,6-dioxopiperidin-3-yl)-1-oxoisoindolin-4-yl)pent-4-yn-1-yl)acetamide] | > 100 nM |
| CC1(C)CCC2(CC1)N[C@@H](C(=O)NC13CCC(C(=O)N4CCC(C#Cc5cccc6c5CN(C5CCC(=O)NC5=O)C6=O)CC4)(CC1)CC3)[C@H](c1cccc(Cl)c1F)[C@]21C(=O)Nc2cc(Cl)ccc21 (stereo partly drawn) [Cpd. No. 13, (3′R,4′S,5′R)-6″-chloro-4′-(3-chloro-2-fluorophenyl)-N-(4-(4-((2-(2,6-dioxopiperidin-3-yl)-1-oxoisoindolin-4-yl)ethynyl)piperidine-1-carbonyl)bicyclo[2.2.2]octan-1-yl)-4,4-dimethyl-2″-oxodispiro[cyclohexane-1,2′-pyrrolidine-3′,3″-indoline]-5′-] | 6 nM |
| O=C1CCC(N2Cc3c(C#CC4CCN(C(=O)CC5CCN(C(=O)[C@@H]6NC7(CCCCC7)[C@@]7(C(=O)Nc8cc(Cl)ccc87)[C@H]6c6cccc(Cl)c6F)CC5)CC4)cccc3C2=O)C(=O)N1 (stereo partly drawn) [Cpd. No. 29, 3-(4-((1-(2-(1-((3′R,4′S,5′R)-6″-chloro-4′-(3-chloro-2-fluorophenyl)-2″-oxodispiro[cyclohexane-1,2′-pyrrolidine-3′,3″-indoline]-5′-carbonyl)piperidin-4-yl)acetyl)piperidin-4-yl)ethynyl)-1-oxoisoindolin-2-yl)piperidine-2,6-dione] | > 100 nM |
| O=C1CCC(N2Cc3c(C#CC4CCN(C(=O)C5CCN(C(=O)[C@@H]6NC7(CCCCC7)[C@@]7(C(=O)Nc8cc(Cl)ccc87)[C@H]6c6cccc(Cl)c6F)CC5)CC4)cccc3C2=O)C(=O)N1 (stereo partly drawn) [Cpd. No. 23, 3-(4-((1-(1-((3′R,4′S,5′R)-6″-chloro-4′-(3-chloro-2-fluorophenyl)-2″-oxodispiro[cyclohexane-1,2′-pyrrolidine-3′,3″-indoline]-5′-carbonyl)piperidine-4-carbonyl)piperidin-4-yl)ethynyl)-1-oxoisoindolin-2-yl)piperidine-2,6-dione] | > 100 nM |
| O=C1CCC(N2Cc3c(C#CCCCNC(=O)[C@H]4CC[C@H](NC(=O)[C@@H]5NC6(CCCCC6)[C@@]6(C(=O)Nc7cc(Cl)ccc76)[C@H]5c5cccc(Cl)c5)CC4)cccc3C2=O)C(=O)N1 (stereo partly drawn) [Cpd. No. 26, (3′R,4′R,5′R)-6″-chloro-4′-(3-chlorophenyl)-N-((1r,4R)-4-((5-(2-(2,6-dioxopiperidin-3-yl)-1-oxoisoindolin-4-yl)pent-4-yn-1-yl)carbamoyl)cyclohexyl)-2″-oxodispiro[cyclohexane-1,2′-pyrrolidine-3′,3″-indoline]-5′-carboxamide] | 0.7 nM |
| O=C1CCC(N2Cc3c(C#CC4CCN(C(=O)C56CC(NC(=O)[C@@H]7NC8(CCCCC8)[C@@]8(C(=O)Nc9cc(Cl)ccc98)[C@H]7c7cccc(Cl)c7F)(C5)C6)CC4)cccc3C2=O)C(=O)N1 (stereo partly drawn) [Cpd. No. 11, (3′R,4′S,5′R)-6″-chloro-4′-(3-chloro-2-fluorophenyl)-N-(3-(4-((2-(2,6-dioxopiperidin-3-yl)-1-oxoisoindolin-4-yl)ethynyl)piperidine-1-carbonyl)bicyclo[1.1.1]pentan-1-yl)-2″-oxodispiro[cyclohexane-1,2′-pyrrolidine-3′,3″-indoline]-5′-carboxamide] | 0.3 nM |
| CC(C)(C)C[C@@H]1N[C@@H](C(=O)NC23CCC(C(=O)N4CCC(C#Cc5cccc6c5CN(C5CCC(=O)NC5=O)C6=O)CC4)(CC2)CC3)[C@H](c2cccc(Cl)c2F)[C@@]1(C#N)c1ccc(Cl)cc1F (stereo partly drawn) [Cpd. No. 38] | 56 nM |
| CN(C(=O)[C@@H]1NC2(CCCCC2)[C@@]2(C(=O)Nc3cc(Cl)ccc32)[C@H]1c1cccc(Cl)c1F)[C@H]1CC[C@H](C(=O)N2CCC(C#Cc3cccc4c3CN(C3CCC(=O)NC3=O)C4=O)CC2)CC1 (stereo partly drawn) [Cpd. No. 15, (3′R,4′S,5′R)-6″-chloro-4′-(3-chloro-2-fluorophenyl)-N-((1r,4R)-4-(4-((2-(2,6-dioxopiperidin-3-yl)-1-oxoisoindolin-4-yl)ethynyl)piperidine-1-carbonyl)cyclohexyl)-N-methyl-2″-oxodispiro[cyclohexane-1,2′-pyrrolidine-3′,3″-indoline]-5′-carboxamide] | 60 nM |
| CN1[C@@H](C(=O)N[C@H]2CC[C@H](C(=O)N3CCC(C#Cc4cccc5c4CN(C4CCC(=O)NC4=O)C5=O)CC3)CC2)[C@H](c2cccc(Cl)c2F)[C@]2(C(=O)Nc3cc(Cl)ccc32)C12CCCCC2 (stereo partly drawn) [Cpd. No. 9, (3′R,4′S,5′R)-6″-chloro-4′-(3-chloro-2-fluorophenyl)-N-((1r,4R)-4-(4-((2-(2,6-dioxopiperidin-3-yl)-1-oxoisoindolin-4-yl)ethynyl)piperidine-1-carbonyl)cyclohexyl)-1′-methyl-2″-oxodispiro[cyclohexane-1,2′-pyrrolidine-3′,3″-indoline]-5′-carboxamide] | 2.8 nM |
| CC1(C#Cc2cccc3c2CN(C2CCC(=O)NC2=O)C3=O)CCN(C(=O)[C@H]2CC[C@H](NC(=O)[C@@H]3NC4(CCCCC4)[C@@]4(C(=O)Nc5cc(Cl)ccc54)[C@H]3c3cccc(Cl)c3F)CC2)CC1 (stereo partly drawn) [Cpd. No. 30, (3′R,4′S,5′R)-6″-chloro-4′-(3-chloro-2-fluorophenyl)-N-(4-(4-((2-(2,6-dioxopiperidin-3-yl)-1-oxoisoindolin-4-yl)ethynyl)-4-methylpiperidine-1-carbonyl)cyclohexyl)-2″-oxodispiro[cyclohexane-1,2′-pyrrolidine-3′,3″-indoline]-5′-carboxamide] | 1.2 nM |
| CN1[C@@H](C(=O)NC23CCC(C(=O)N4CCC(C#Cc5cccc6c5CN(C5CCC(=O)NC5=O)C6=O)CC4)(CC2)CC3)[C@H](c2cccc(Cl)c2F)[C@]2(C(=O)Nc3cc(Cl)ccc32)C12CCCCC2 (stereo partly drawn) [Cpd. No. 10, (3′R,4′S,5′R)-6″-chloro-4′-(3-chloro-2-fluorophenyl)-N-(4-(4-((2-(2,6-dioxopiperidin-3-yl)-1-oxoisoindolin-4-yl)ethynyl)piperidine-1-carbonyl)bicyclo[2.2.2]octan-1-yl)-1 ′-methyl-2″-oxodispiro[cyclohexane-1,2′-pyrrolidine-3′,3″-indoline]-5′-carboxamide] | 8 nM |
| O=C1CCC(N2Cc3c(C#CC4CN(C(=O)[C@H]5CC[C@H](NC(=O)[C@@H]6NC7(CCCCC7)[C@@]7(C(=O)Nc8cc(Cl)ccc87)[C@H]6c6cccc(Cl)c6F)CC5)C4)cccc3C2=O)C(=O)N1 (stereo partly drawn) [Cpd. No. 32, (3′R,4′S,5′R)-6″-chloro-4′-(3-chloro-2-fluorophenyl)-N-(4-(3-((2-(2,6-dioxopiperidin-3-yl)-1-oxoisoindolin-4-yl)ethynyl)azetidine-1-carbonyl)cyclohexyl)-2″-oxodispiro[cyclohexane-1,2′-pyrrolidine-3′,3″-indoline]-5′-carboxamide] | 1.3 nM |
